Measurements published in US20260070929A1, “METHODS AND COMPOSITIONS FOR MODULATING KRAS(G12D)” (Ranok Therapeutics (Hangzhou) Co. LTD., priority 2022, published 2026).

Experiments:
[1] = tested on: AGS gastric carcinoma cells [heterozygous G12D]; experiment: Cancer cell line proliferation (CellTiter-Glo), AGS; assay type: cell-based; conditions: Homo sapiens, 72 hr treatment, read-out: AGS CTG (EC50)
Method: (§1) The following cancer cell lines were employed: AGS gastric carcinoma [heterozygous G12D](ATCC, CRL-1739); A-427 lung carcinoma [heterozygous G12D](ATCC, HTB-53); ASPC1 pancreatic adenocarcinoma [homozygous G12D](ATCC, CRL-1682) and SW1990 pancreatic adenocarcinoma [homozygous G12D](ATCC CRL-2172). Cell lines were cultured essentially according to ATCC recommendations.
(§2) AGS, A-427, ASPC1, SW1990, and GP2D cells were plated in 96-well tissue culture plates at 4,000 cells/well and incubated at 37° C./5% CO2 for 72 hr in 100 μl of media. 3-fold serial dilutions of each test compound were prepared ranging from 20 μM to 1.02 nM. Each cell line was then treated with test compounds at various concentrations with a final concentration of 0.5% DMSO/well, and then incubated at 37° C./5% CO2 for 72 hr. 100 µl of CellTiter-Glo® Reagent (Promega Corporation, Madison, WI) was added to each well and processed according manufacturer's protocol. Results were analyzed and EC50 values were calculated in GraphPad 7 software.

KRAS(G12D)/SOS1 = target: T1, KRAS(G12D)/SOS1 (Homo sapiens, UniProt P01116, G12D); experiment: KRAS(G12D)/SOS1 homogeneous time-resolved fluorescence (HTRF) assay; assay type: binding; conditions: absence of GTP; 4° C., 3 hr
T1 construct: purchased Cisbio 63ADK000CB17PEH
T1 sequence (P01116 1-188 isoform P01116-2 G12D): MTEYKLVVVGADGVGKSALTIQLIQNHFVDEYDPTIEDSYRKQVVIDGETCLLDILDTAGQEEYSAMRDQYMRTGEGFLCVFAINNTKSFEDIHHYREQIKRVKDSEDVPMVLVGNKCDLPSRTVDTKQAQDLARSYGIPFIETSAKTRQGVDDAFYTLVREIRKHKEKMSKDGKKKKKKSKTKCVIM
Method: Binding of test compounds to KRAS(G12D) target protein, which in turn blocks KRAS(G12D) interaction with the SOS1 protein, was measured in the absences of GTP by homogeneous time-resolved fluorescence using the KRAS-G12D/SOS1 Binding Assay Kit (Cisbio, 63ADK000CB17PEH), following the manufacturer's instructions, except as noted. 3-fold serial dilutions of each test compound were prepared ranging from 20 µM to 1.02 nM. The test compound was mixed and incubated with reaction components, incubated in a sealed plate at 4° C. for 3 hr and fluorescence was measured using a PerkinElmer Envision plate reader. The KRAS(G12D)-SOS1 IC50 values (the concentration of 50% of the maximal inhibition) were calculated using GraphPad Prism 7 software.

[2] = tested on: A-427 lung carcinoma cells [heterozygous G12D]; experiment: Cancer cell line proliferation (CellTiter-Glo), A-427; assay type: cell-based; conditions: Homo sapiens, A-427 cells, 72 hr treatment, read-out: A427 CTG (EC50)
Method: as §1, §2

Row | SMILES | EC50 [1] [nM] | IC50 (KRAS(G12D)/SOS1) [nM] | EC50 [2] [nM]
1 | C#Cc1c(F)ccc2cc(O)cc(-c3ncc4c(N5CC6CCC(C5)N6)nc(OCC5(CN6CCN(CC#Cc7cn(Cc8ncc(C)c(OC)c8C)c8nc(N)nc(Cl)c78)CC6)CC5)nc4c3F)c12 [Compound 211] | < 100 | – | –
2 | CCNC(=O)c1nnc(-c2cc(C(C)C)c(O)cc2O)n1-c1ccc(CN2CCN([C@H]3C[C@@H](COc4nc(N5CC6CCC(C5)N6)c5cnc(-c6cccc7cccc(F)c67)c(F)c5n4)N(C)C3)CC2)cc1 [Compound 77] | < 100 | 100 to 1000 | 100 to 1000
3 | CC(C)c1cc(C(=O)N2Cc3ccc(CN4CCC(C(=O)N5CCN([C@H]6C[C@@H](COc7nc(N8CC9CCC(C8)N9)c8cnc(-c9ccccc9C(F)(F)F)c(F)c8n7)N(C)C6)CC5)CC4)cc3C2)c(O)cc1O [Compound 91] | 100 to 1000 | > 1000 | 100 to 1000
4 | C#Cc1c(F)ccc2cc(O)cc(-c3ncc4c(N5CC6CCC(C5)N6)nc(OCC5(CN6CC(CN(C)CCOc7ccc8c(c7)CN(C(=O)c7cc(C(C)C)c(O)cc7O)C8)C6)CC5)nc4c3F)c12 [Compound 218] | 100 to 1000 | – | –
5 | Cc1c(F)cccc1-c1ncc2c(N3CC4CCC(C3)N4)nc(OC[C@@H]3C[C@H](N4CCN(Cc5ccc(-n6c(C(=O)NC(C)C(F)(F)F)nnc6-c6cc(C(C)C)c(O)cc6O)cc5)CC4)CN3C)nc2c1F (stereo partly shown) [Compound 78] | 100 to 1000 | > 1000 | 100 to 1000
6 | C#Cc1c(F)ccc2cc(O)cc(-c3ncc4c(N5CC6CCC(C5)N6)nc(OCC5(CN6CCC(N7CCN(Cc8cc9c(cc8F)CN(C(=O)c8cc(C(C)C)c(O)cc8O)C9)CC7)CC6)CC5)nc4c3F)c12 [Compound 209] | < 100 | – | –
7 | C#Cc1c(F)ccc2cc(O)cc(-c3ncc4c(N5CC6CCC(C5)N6)nc(OCC5(CN6CCC(N7CCN(Cc8ccc9c(c8)CN(C(=O)c8cc(C(C)C)c(OC)cc8OC)C9)CC7)CC6)CC5)nc4c3F)c12 [Compound 196] | < 100 | – | –
8 | C#Cc1cccc2cc(O)cc(-c3ncc4c(N5CC6CCC(C5)N6)nc(OC[C@@H]5C[C@H](CN6CCN(Cc7ccc(-n8c(C(=O)NC(C)C(F)(F)F)nnc8-c8cc(C(C)C)c(O)cc8O)cc7)CC6)CN5C)nc4c3F)c12 (stereo partly shown) [Compound 115] | 100 to 1000 | – | 100 to 1000
9 | CC(C)c1cc(C(=O)N2Cc3ccc(CN4CCN(C[C@H]5C[C@@H](COc6nc(N7CC8CCC(C7)N8)c7cnc(-c8cc(O)cc9ccccc89)c(F)c7n6)N(C)C5)CC4)cc3C2)c(O)cc1O [Compound 90] | 100 to 1000 | – | 100 to 1000
10 | C#Cc1cccc2cc(O)cc(-c3ncc4c(N5CC6CCC(C5)N6)nc(OC[C@@H]5C[C@H](CN6CCN(Cc7ccc(-n8c(C(=O)NCC(F)(F)F)nnc8-c8cc(CC)c(O)cc8O)cc7)CC6)CN5C)nc4c3F)c12 [Compound 116] | 100 to 1000 | – | > 1000
11 | CC(C)c1cc(-c2nnc(C(=O)NC(C)C(F)(F)F)n2-c2ccc(CN3CCN([C@H]4C[C@@H](COc5nc(N6CC7CCC(C6)N7)c6cnc(-c7ccccc7C(F)(F)F)c(F)c6n5)N(C)C4)CC3)cc2)c(O)cc1O (stereo partly shown) [Compound 110] | 100 to 1000 | – | 100 to 1000
12 | C#Cc1c(F)ccc2cc(O)cc(-c3nc(OC)c4c(N5CC6CCC(C5)N6)nc(OC5CN(CC6(F)CN(Cc7ccc8c(c7)CN(C(=O)c7cc(C(C)C)c(O)cc7O)C8)C6)C5)nc4c3F)c12 [Compound 210] | 100 to 1000 | – | –
13 | C#Cc1c(F)ccc2cc(O)cc(-c3ncc4c(N5CC6CCC(C5)N6)nc(OCC5(CN6CCC(N7CCC(Oc8ccc9c(n8)CN(C(=O)c8cc(C(C)C)c(O)cc8O)C9)CC7)CC6)CC5)nc4c3F)c12 [Compound 216] | < 100 | – | –
14 | C#Cc1cccc2cc(O)cc(-c3ncc4c(N5CC6CCC(C5)N6)nc(OCC5(CN6CCC(N7CCN(Cc8ccc9c(c8)CN(C(=O)c8cc(C(C)C)c(O)cc8O)C9)CC7)CC6)CC5)nc4c3F)c12 [Compound 214] | < 100 | – | –
15 | C#Cc1cccc2cccc(-c3ncc4c(N5CC6CCC(C5)N6)nc(OCC5(CN6CCN(C(=O)C7CCN(Cc8ccc9c(c8)CN(C(=O)c8cc(C(C)C)c(O)cc8O)C9)CC7)CC6)CC5)nc4c3F)c12 [Compound 46] | – | < 100 | –
16 | C#Cc1c(F)ccc2cc(O)cc(-c3ncc4c(N5CC6CNC(C6)C5)nc(OCC5(CN6CCC(N7CCN(Cc8ccc9c(c8)CN(C(=O)c8cc(C(C)C)c(O)cc8O)C9)CC7)CC6)CC5)nc4c3F)c12 (stereo not shown) [Compound 207] | 100 to 1000 | – | –
17 | C#Cc1cccc2cc(O)cc(-c3ncc4c(N5CC6CCC(C5)N6)nc(OC[C@@H]5C[C@H](CN6CCN(Cc7ccc8c(c7)CN(C(=O)c7cc(C(C)C)c(O)cc7O)C8)CC6)CN5C)nc4c3F)c12 [Compound 113] | 100 to 1000 | – | 100 to 1000
18 | CC(C)c1cc(C(=O)N2Cc3ccc(CN4CCC(C(=O)N5CCN(C[C@H]6C[C@@H](COc7nc(N8CC9CCC(C8)N9)c8cnc(-c9cc(O)cc%10ccccc9%10)c(F)c8n7)N(C)C6)CC5)CC4)cc3C2)c(O)cc1O [Compound 112] | > 1000 | – | > 1000
19 | C#Cc1cccc2cc(O)cc(-c3ncc4c(N5CC6CCC(C5)N6)nc(OC[C@@H]5C[C@H](CN6CCN(Cc7ccc(-n8c(C(=O)NCC)nnc8-c8cc(C(C)C)c(O)cc8O)cc7)CC6)CN5C)nc4c3F)c12 [Compound 114] | 100 to 1000 | – | 100 to 1000
20 | CCc1cc(-c2nnc(C(=O)NCC(F)(F)F)n2-c2ccc(CN3CCN([C@H]4C[C@@H](COc5nc(N6CC7CCC(C6)N7)c6cnc(-c7ccccc7C(F)(F)F)c(F)c6n5)N(C)C4)CC3)cc2)c(O)cc1O [Compound 111] | 100 to 1000 | – | 100 to 1000
21 | CCNC(=O)c1nnc(-c2cc(C(C)C)c(O)cc2O)n1-c1ccc(CN2CCC(C(=O)N(C)[C@H]3CN4CCC[C@]4(COc4nc(N5CC6CCC(C5)N6)c5cnc(-c6cc(O)cc7ccccc67)c(F)c5n4)C3)CC2)cc1 [Compound 48] | 100 to 1000 | – | –
22 | C#Cc1c(F)ccc2cc(O)cc(-c3ncc4c(N5CC6CCC(C5)N6)nc(OCC5(CN6CC(C7CN(Cc8ccc9c(c8)CN(C(=O)c8cc(C(C)C)c(O)cc8O)C9)C7)C6)CC5)nc4c3F)c12 [Compound 213] | < 100 | – | –
23 | CCNC(=O)c1nnc(-c2cc(C(C)C)c(O)cc2O)n1-c1ccc(CN2CCC(C(=O)N(C)[C@H]3CN4CCC[C@@]4(COc4nc(N5CC6CCC(C5)N6)c5cnc(-c6cc(O)cc7ccccc67)c(F)c5n4)C3)CC2)cc1 [Compound 47] | 100 to 1000 | < 100 | –
24 | C#Cc1c(F)ccc2cc(O)cc(-c3ncc4c(N5CC6CCC(C5)N6CC#N)nc(OCC5(CN6CCC(N7CCN(Cc8ccc9c(c8)CN(C(=O)c8cc(C(C)C)c(O)cc8O)C9)CC7)CC6)CC5)nc4c3F)c12 [Compound 208] | < 100 | – | –
25 | Cc1c(F)cccc1-c1ncc2c(N3CC4CCC(C3)N4)nc(OC[C@@H]3C[C@H](N4CCN(C(=O)C5CCN(Cc6ccc7c(c6)CN(C(=O)c6cc(C(C)C)c(O)cc6O)C7)CC5)CC4)CN3C)nc2c1F [Compound 84] | 100 to 1000 | – | 100 to 1000
26 | C#Cc1c(F)ccc2cc(O)cc(-c3ncc4c(N5CC6CCC(C5)N6)nc(OC[C@H]5CCCN5Cc5ccc(-n6c(C(=O)NC(C)C(F)(F)F)nnc6-c6cc(C(C)C)c(O)cc6O)cc5)nc4c3F)c12 (stereo partly shown) [Compound 206] | 100 to 1000 | – | –
27 | C#Cc1c(F)ccc2cc(O)cc(-c3ncc4c(N5CC6CCC(C5)N6)nc(OCC5(CN6CC(C7CCN(Cc8ccc9c(c8)CN(C(=O)c8cc(C(C)C)c(O)cc8O)C9)CC7)C6)CC5)nc4c3F)c12 [Compound 215] | < 100 | – | –
